Experimental data as given in US8895317B2, “Reagent for measuring active nitrogen” (The University of Tokyo, priority 2008, dated 2014).

Experiments:
[1] = Fluorescence quantum yield; format: physicochemical; details: triazole compound at a physiological pH
Source text: (§1) Therefore, use of DCl-DA Cal enables observation of intracellular reactive nitrogen species over such a long period of time that cannot be achieved by conventional fluorescent probes for measuring reactive nitrogen.

[2] = Stability under physiological conditions; format: physicochemical
Source text: as §1

- fluorescence quantum yield Φf [1]: 0.63
- stability under physiological conditions [2]: stable under physiological conditions
SMILES: O=C(O)CN(CC(=O)O)Cc1c2oc3c(CN(CC(=O)O)CC(=O)O)c(O)c(Cl)cc3c(-c3ccc4[nH]nnc4c3C(=O)O)c-2cc(Cl)c1=O [triazole compound]
